Reference: US20260069619A1, “Treatment of Dry Eye Disease Using Mitochondrially Targeted Antioxidants” (MITOTECH S.A., priority 2022, published 2026)

Key:
[1] = system: eye; settings: cited from earlier work
[2] = system: subjects with dry eye syndrome; assay: VISTA-2 clinical study: best corrected visual acuity (BCVA-logMAR); assay type: in vivo, human; settings: blurred vision [OSDI 4]≥1, poor vision [OSDI 5]≥1 at baseline
Excerpt: Visual acuity can be measured by a health care provider to provide a sign of DED. The visual acuity can be a best corrected visual acuity (BCVA) of an eye or of both eyes. A logarithm of the minimum angle of resolution (LogMAR) chart such, for example, a Bailey-Lovie chart or an Early Treatment Diabetic Retinopathy Study chart can be utilized to measure BCVA. The number of letters read correctly by a subject can be converted to logMAR scores. The VISTA-2 (NCT04206020) clinical study reported results of a dose of 1.55 μg/mL SkQ1 compared to placebo (vehicle). VISTA-2 reported a measured change of ocular discomfort scale. The scale ranged from 0 to 4 with 0=no discomfort and 4=constant discomfort from baseline to Day 57. VISTA-2 reported a measured change of level of conjunctival fluorescein staining (sum of temporal and nasal regions). The scale in each region ranged from 0 to 4, with 0=no staining and 4=confluent staining from baseline to day 57. Study subjects were carefully monitored for any adverse events. [table] In VISTA-2, change from baseline in BCVA using a logMAR (BCVA-logMAR) at Visit 3 was evaluated in the ITT subgroup including subjects with Schirmer's test score ≥7 mm, blurred vision [OSDI 4]≥1, and poor vision [OSDI 5]≥1 at baseline. Significant improvement was shown in VISTA-2 with pANCOVA=0.0143. […]

[3] = system: subjects with dry eye syndrome; assay: VISTA-2 clinical study (NCT04206020): central corneal fluorescein staining; assay type: in vivo, human; settings: for Change from baseline in central fluorescein staining, LS Mean: 1.55 μg/mL SkQ1, ITT subgroup, observed data only
Experimental: The VISTA-2 (NCT04206020) clinical study reported results of a dose of 1.55 μg/mL SkQ1 compared to placebo (vehicle). VISTA-2 reported a measured change of ocular discomfort scale. The scale ranged from 0 to 4 with 0=no discomfort and 4=constant discomfort from baseline to Day 57. VISTA-2 reported a measured change of level of conjunctival fluorescein staining (sum of temporal and nasal regions). The scale in each region ranged from 0 to 4, with 0=no staining and 4=confluent staining from baseline to day 57. Study subjects were carefully monitored for any adverse events.
(§1) In addition to the reported data, observed data collected during the VISTA-1 and VISTA-2 clinical studies were analyzed in an ITT subgroup with an unanesthetized Schirmer's Test ≥7 mm at baseline (initial evaluation).
(§2) In both VISTA-1 and VISTA-2, post-hoc analyses were conducted on observed data for the ITT subgroup including subjects with an unanesthetized Schirmer's test score of ≥7 mm at baseline, with observed data only to evaluate change from baseline in central fluorescein staining. Table 4 summarizes the results for subjects with unanesthetized Schirmer's test score of […] at baseline. […] In VISTA-2, with increased sample size, significant improvement was confirmed in this subgroup (pANCOVA=0.0168). In Table 4, the change from baseline in central fluorescein staining for the ITT subgroup with unanesthetized Schirmer's test score of ≥7 mm at baseline is provided with observed data only.
(§3) A similar subgroup, as described above, was also analyzed in post-hoc analyses for both VISTA-1 and VISTA-2 to evaluate the proportion of subjects with clearing of corneal fluorescein staining in the central region. […] In VISTA-2, with increased sample size, significant improvement was confirmed (pLogistic regression=0.0049, pPearson chi-squared=0.0033, pFisher's exact test=0.0037). In Table 5, the proportion of study subjects with clearing of corneal fluorescein staining in the central corneal region, for the ITT Subgroup with unanesthetized Schirmer's test score of ≥7 mm at baseline is presented, with observed data only.

[4] = system: subjects with dry eye syndrome; assay: VISTA-1 clinical study (NCT03764735): central corneal fluorescein staining; assay type: in vivo, human; settings: for Change from baseline in central corneal fluorescein staining, ANCOVA model LS Mean (SE) / Difference in Means, Active - Placebo (two-sample t-test), central corneal fluorescein staining change: 57 days, mITT; for Change from baseline in central corneal fluorescein staining, Mean (SD): after 57 days, mITT population, scale 0-4; for Change from baseline in central fluorescein staining, LS Mean: ITT subgroup, observed data only
Excerpt: The VISTA-1 clinical study (NCT03764735) evaluated ophthalmic solutions with different concentrations of SkQ1 for various aspects of safety and effectiveness compared to placebo (vehicle) for treatment of various signs and symptoms of DED. The vehicle was an artificial tear treatment used as a control.
The VISTA-1 study reported change of level of corneal fluorescein staining from baseline to day 57. The level of corneal fluorescein scale ranged from 0 to 4, where level 0=none and level 4=severe. VISTA-1 reported a change in symptoms such as subject-reported grittiness from baseline to day 57, where the scale ranged from 0 to 5 for each symptom, where 0=none and 5=worst. Study subjects were carefully monitored for any adverse events.
as §1, §2, §3

[5] = 1.55 μg/mL SkQ1, ITT subgroup Schirmer's ≥7 mm at baseline
[6] = 1.55 μg/mL SkQ1, ITT subgroup Schirmer's ≥7 mm at baseline, of 78 subjects
[7] = VISTA-1, 1.55 μg/mL SkQ1, ITT subgroup Schirmer's ≥7 mm at baseline
[8] = VISTA-1, 1.55 μg/mL SkQ1, ITT subgroup Schirmer's ≥7 mm at baseline, of 46 subjects

## SkQ1
[1]; in vivo
  dose at which mild ocular toxicity is observed: 45 μg/eye/day
[1]; per eye per day
  no observed adverse effect level (NOAEL) for ocular toxicity: 4.5 μg/eye/day
[2]; 1.55 μg/mL SkQ1, ITT subgroup Schirmer's <7 mm
  BCVA-logMAR change from baseline, LS Mean (SE): −0.0 (0.0137)
[2]; 1.55 μg/mL SkQ1, Visit 3, ITT subgroup Schirmer's ≥7 mm
  BCVA-logMAR change from baseline, LS Mean (SE): −0.012 (0.0143)
[3]; [5]
  Proportion of Subjects with Fluorescein Staining in the Central Region (>0 Score): (83.3%)
  Proportion of Subjects without Fluorescein Staining in the Central Region (=0 Score): (16.7%)
[3]; [6]
  Number of Subjects with Fluorescein Staining in the Central Region (>0 Score): 65
  Number of Subjects without Fluorescein Staining in the Central Region (=0 Score): 13
[3]; unanesthetized Schirmer's test <7 mm at baseline
  Change from baseline in central fluorescein staining, LS Mean: −0.156
[3]; unanesthetized Schirmer's test ≥7 mm at baseline
  Change from baseline in central fluorescein staining, LS Mean: −0.43
[3]; ITT subgroup Schirmer's ≥7 mm at baseline
  Odds Ratio, Logistic Regression, clearing of central corneal fluorescein staining, 1.55 μg/mL SkQ1 - Placebo: 6.73
[4]; 0.155 μg/mL SkQ1
  Change from baseline in central corneal fluorescein staining, ANCOVA model LS Mean (SE): −0.31 (0.059)
  Difference in Means, Active - Placebo (two-sample t-test), central corneal fluorescein staining change: −0.02
[4]; 0.155 μg/mL SkQ1, listed as SkQ
  Change from baseline in central corneal fluorescein staining, ANCOVA model LS Mean (SE): −0.31
[4]; 0.155 μg/mL SkQ1 ophthalmic solution BID
  Change from baseline in central corneal fluorescein staining, Mean (SD): −0.30 (0.816)
[4]; 1.55 μg/mL SkQ1
  Change from baseline in central corneal fluorescein staining, ANCOVA model LS Mean (SE): −0.20 (0.058)
  Difference in Means, Active - Placebo (two-sample t-test), central corneal fluorescein staining change: 0.08
[4]; 1.55 μg/mL SkQ1, listed as SkQ6
  Change from baseline in central corneal fluorescein staining, ANCOVA model LS Mean (SE): −0.20
[4]; 1.55 μg/mL SkQ1 ophthalmic solution BID
  Change from baseline in central corneal fluorescein staining, Mean (SD): −0.20 (0.763)
[4]; 0.155 and 1.55 μg/mL SkQ1 ophthalmic solution, all treatment groups
  Treatment effect on the central fluorescein staining sign of dry eye vs placebo: no statistically significant beneficial treatment effect
[4]; [7]
  Proportion of Subjects with Fluorescein Staining in the Central Region (>0 Score): (84.8%)
  Proportion of Subjects without Fluorescein Staining in the Central Region (=0 Score): (15.2%)
[4]; [8]
  Number of Subjects with Fluorescein Staining in the Central Region (>0 Score): 39
  Number of Subjects without Fluorescein Staining in the Central Region (=0 Score): 7
[4]; VISTA-1, 1.55 μg/mL SkQ1, unanesthetized Schirmer's test <7 mm at baseline
  Change from baseline in central fluorescein staining, LS Mean: −0.20
[4]; VISTA-1, 1.55 μg/mL SkQ1, unanesthetized Schirmer's test ≥7 mm at baseline
  Change from baseline in central fluorescein staining, LS Mean: −0.46
[4]; VISTA-1, ITT subgroup Schirmer's ≥7 mm at baseline
  Odds Ratio, Logistic Regression, clearing of central corneal fluorescein staining, 1.55 μg/mL SkQ1 - Placebo: 7.57
